In US10704064B2, “Recombinant yeast producing 3-hydroxypropionic acid and method for producing 3-hydroxypropionic acid using the same” (SK Innovation Co., Ltd., priority 2014, dated 2020):

Key:
ACC1 = experiment: ACC radioactive enzyme assay (14C carbonate) from yeast cell lysates; format: biochemical, S. cerevisiae; details: strains of Table 13, FIG. 2
Source text: The most commonly used in vitro ACC assay is based on the usage of radioactive ^14C carbonate. The incorporation of radioactive carbonate into an acid and a non-volatile material (i.e. malonyl-CoA) is followed. The ^14C-labelled sodium bicarbonate which has not been converted to malonyl-CoA is removed by an acid and heat treatment which converts the remaining NaH14CO3 and the possible side products of the reaction into ^14C-labelled CO2.
This assay described by Diacovich et al. (2002, J. Biol. Chem. 277:31228-31236) has been used to detect ACC activity from yeast lysates (Shi et al. 2014, mBIO 5:3 e01130-14) with slight modifications. The cell lysates were prepared from yeast cells harvested during late exponential or stationary phase. The cells were washed and then resuspended in lysis buffer containing 100 mM potassium phosphate pH 7.5, 2 mM MgCl2, 1 mM dithiothreitol and 1×EDTA free Complete protease inhibitor (Roche). The cells were disrupted by glass beads and the supernatant was collected after centrifugation at 4° C. […]
The reaction was incubated at 30° C. for 15 min, and stopped by adding 50 μL of 5 M HCl. […] The ^14C content of the samples was determined using a liquid scintillation counter (PerkinElmer Tri-Carb 2810TR). […]
The radioactive ACC enzyme assay is very sensitive, even pmol/mg/min activities can be detected. […]

AADH = AADH in vitro enzyme activity assay from yeast cell lysates; format: biochemical; details: in vitro, expressed in yeast
Protocol: AADH activity was measured as described by Kozak et al. (2014, Metab. Eng. 21:46-59) by monitoring the reduction of NAD^+ at 340 nm at 30° C. The yeast cells for the cell lysates were collected, washed with water, and then resuspended into lysis buffer containing 100 mM Tris-HCl buffer (pH 7.5) and 1×EDTA free protease inhibitor cocktail (Roche). The cells were lysed with glass beads in a Precellys 24 homogenizer at 5500 rpm for 3×40 seconds and kept on ice between rounds. Lysates were centrifuged at 16 000 g for 20 min at 4° C. and supernatants were collected. The total protein concentration was determined using the Bradford method.
The enzyme assay reaction mixture contained 0.1 mM Coenzyme A, 50 mM CHES buffer (pH 9.5), 0.8 mM NAD^+, 0.2 mM DTT and 10 μL of cell extract in a total reaction volume of 200 μL. The reaction was started by adding 10 mM of freshly prepared acetaldehyde solution and reduction of NAD^+ was followed with a Thermo Konelab 20XT analyser.
Five AADH genes were originally chosen (i.e. ADHEpm, ADHEec, EUTec, EUTdz and LIN1129li) and transformed into the CEN.PK lab strain. These AADHs were expressed from a multicopy plasmid where they were under control of the TEF1 promoter.
Twenty additional novel AADH genes were chosen from the genome mining analyses to be evaluated for expression and enzyme activity in yeast.

[1] = tested on: S. cerevisiae VSK-128 ACS2 deletion strain; experiment: AADH in vivo growth assay, ACS2 deletion strain on glucose-based agar plates; format: cell-based
Source text: All copies of the ACS2 gene were deleted from the industrial S. cerevisiae VSK-128 strain in order to generate a strain with a defective PDH-bypass that was incapable of growth on glucose-based medium. Expression vectors carrying the 25 different AADH variants were then transformed into this ACS2 deletion strain to evaluate their ability to recover the growth of this strain on glucose.
There was a good correlation between the in vitro AADH enzyme activity assays and the in vivo growth recovery analyses.

**Q.** Which “relative ranking on ACC1 activity” value (ACC1) does the source give for “ACCyl: acetyl-CoA carboxylase of Yarrowia lipolytica CLIB122, GenBank XP_501721.1” here?
**A.** most promising candidate

**Q.** Which AADH activity (AADH) does the source give for “ADHEec: adhE type AADH of Escherichia coli K-12 substr. MG1655, GenBank NP_415757.1” here?
**A.** showed AADH activity

**Q.** And the “recovery of the growth deficiency of the ACS2-deletion strain” value [1]?
**A.** capable of recovering the growth deficiency
